Test results as given in patent publication US20070021451A1, “Method for preventing or treating neurologic damage after spinal cord injury” (HAMAMATSU UNIVERSITY SCHOOL OF MEDICINE, priority 2005, published 2007).

What was measured:
[1] = system: Rabbit Model of Spinal Cord Ischemia; test: Histopathologic examination (HE staining, semiquantitative histologic score); format: in vivo, New Zealand White rabbits
Procedure: Twenty-six male New Zealand White rabbits weighting 2.2 to 3.0 kg were used in this experiment. Spinal cord ischemia was induced by occluding the abdominal aorta with […] for 20 minutes just distal to the renal arteries. Surgical preparation was conducted according to the method described in the literature, Terada H. et. al., J. Thorac. Cardiovasc. Surg. 2001; 122: 979-85. A 24-gauge venous catheter was placed in the marginal ear vein for drug administration. The rabbits were anesthetized with intravenous sodium pentobarbital (25 mg/kg) and allowed to breathe spontaneously. Lidocaine (0.5%) was administered at the site of the skin incision as local anesthesia. The left common carotid artery was cannulated with a 24-gauge catheter for monitoring the arterial pressure. Core body temperature was continuously monitored with a rectal probe and was maintained at 38.5° C. with the aid of heating lamp. The infrarenal abdominal aorta was exposed through a transperitoneal approach. After systemic heparinization (200 U/kg), spinal cord ischemia was induced by occluding the abdominal aorta with […] for 20 minutes just distal to the renal arteries and just above the aortic bifurcation. Then, the […] released, and the flank was closed. […] The rabbits were assigned randomly to 1 of the 4 groups and subjected to the treatment of (1) above in the following manner. The sham group (n=3) underwent the same operation without aortic occlusion. The control group (n=7) received saline (1 ml) intravenously 15 minutes before aortic occlusion. NS-7 (1 mg/kg) was administered intravenously as a bolus dose 15 minutes before aortic occlusion in group A (n=8) or just after releasing the […] onset of reperfusion) in group B (n=8). All animals were killed by means of a lethal injection of pentobarbital (200 mg/kg) 48 hours after operation. Spinal cords were quickly harvested and sectioned from the low thoracic level to the low lumbar level into the following 4 segments: low thoracic (LT=T10-T12), upper lumbar (UL=L1-L2), mid lumbar (ML=L3-L4), and low lumbar (LL=L5-L6). […]

[2] = system: Rabbit Model of Spinal Cord Ischemia; test: TUNEL staining of motor neurons (mid lumbar segment); format: in vivo, New Zealand White rabbits; conditions: NS-7 15 minutes before ischemia or at the onset of reperfusion; P<0.05 vs control (FIG. 6)
Procedure: Twenty-six male New Zealand White rabbits weighting 2.2 to 3.0 kg were used in this experiment. Spinal cord ischemia was induced by occluding the abdominal aorta with […] for 20 minutes just distal to the renal arteries. Surgical preparation was conducted according to the method described in the literature, Terada H. et. al., J. Thorac. Cardiovasc. Surg. 2001; 122: 979-85. A 24-gauge venous catheter was placed in the marginal ear vein for drug administration. The rabbits were anesthetized with intravenous sodium pentobarbital (25 mg/kg) and allowed to breathe spontaneously. Lidocaine (0.5%) was administered at the site of the skin incision as local anesthesia. The left common carotid artery was cannulated with a 24-gauge catheter for monitoring the arterial pressure. Core body temperature was continuously monitored with a rectal probe and was maintained at 38.5° C. with the aid of heating lamp. The infrarenal abdominal aorta was exposed through a transperitoneal approach. […] The number of motor neurons that were positive in TUNEL staining was counted in 3 sections, and the values were averaged (Sakurai M., J. Thorac. Cardiovasc. Surg. 2000; 120: 1148-57, Lang-Lazdunski L., J. Vasc. Surg. 2003; 38: 564-75). […]

For `Cc1cc(-c2ccc(F)cc2)cc(OCCCCCN2CCCCC2)n1.Cl` [NS-7, 4-(4-Fluorophenyl)-2-methyl-6-(5-piperidinopentyloxy)pyridine hydrochloride], the “Cellular damage in HE-stained sections (FIG. 3)” value ([1]; NS-7 before ischemia or at the onset of reperfusion, mid lumbar) was “minimal evidence of cellular damage”, the “Histologic changes in the spinal cords” value ([1]; group A or group B, mid lumbar and low lumbar levels) was “only slight changes” and the Average histologic scores ([1]; group A or group B, mid lumbar and low lumbar levels, vs control group (FIG. 4)) was “significantly lower than those of the control group”. The “Total number of apoptotic (TUNEL-positive) motor neurons” value [2] was “strongly reduced”.
